Measured values as given in US12590094B2, “Compounds for the treatment of neurodegenerative and metabolic disorders” (UNIVERSITY OF FLORIDA RESEARCH FOUNDATION, INCORPORATED, priority 2019, dated 2026).
Read-outs that look alike come from different tables or passages of the source.

Assays:
Cells exposed to TPrP [1] = settings: for EC50: read-out: Viability EC50
[2] = system: PK1 neuroblastoma cells treated with TPrP; experiment: cells; format: cell-based; settings: for EC50: Neuroblastoma cell, read-out: Viability EC50
[3] = system: PK1 neuroblastoma cells treated with TPrP; experiment: cells; format: cell-based; settings: Neuroblastoma cell, read-out: NAD EC50
Cells exposed to TPrP [4] = experiment: cells; settings: read-out: Viability EC50

Row | Compound | EC50 [2] [nM] | EC50 [3] [nM] | further results
1 | CCc1c(C(=O)NCCN)ncc2[nH]c3cc(OC)c(OC)cc3c12 [DMCM-8124] | – | – | EC50 (Cells exposed to TPrP [1]): ~1800 nM
2 | CCc1c(C(=O)NCCN)ncc2[nH]c3cc(OC)c(OC)cc3c12 [DMCM-8130] | – | – | EC50 (Cells exposed to TPrP [1]): ~600 nM
3 | COc1cc(OC)c2cc(-c3ccncc3)cnc2c1 [DMPQ] | 505 | 5500 | –
4 | COc1ccc(-c2cc(C(F)(F)F)n3ncc(C(=O)NCCCn4ccnc4)c3n2)cc1 [SR0-24081] | – | – | EC50 (Cells exposed to TPrP [1]): 0.5 nM
5 | O=C(NCCCn1ccnc1)c1cnn2c(C(F)(F)F)cc(-c3ccc(Br)cc3)nc12 [SR0-24082] | – | – | Viability EC50: % effective (Cells exposed to TPrP [1]): ~40% effective at nM, fully effective at 10 nM
6 | O=C(NCCCn1ccnc1)c1cnn2c(C(F)(F)F)cc(-c3ccc(F)cc3)nc12 [SR0-24083] | – | – | Viability EC50: % effective (Cells exposed to TPrP [1]; at 1 nM): ~40% effective at 1 nM, fully effective at 10 nM
7 | O=C(NCCCn1ccnc1)c1cnn2c(C(F)F)cc(-c3ccccc3)nc12 [SR0-24084] | – | – | Viability EC50: % effective (Cells exposed to TPrP [1]; at 1 nM): ~40% effective at 1 nM, fully effective at 10 nM
8 | COc1ccc(-c2cc(C(F)(F)F)n3ncc(C(=O)NCCCn4ccnc4)c3n2)cc1 [SR0-28468] | – | – | EC50 (Cells exposed to TPrP [1]): > 50 nM
9 | COc1ccc(-c2cc(C(F)(F)F)n3ncc(C(=O)NCCCn4ccnc4C)c3n2)cc1 [SR0-31107] | – | – | EC50 (Cells exposed to TPrP [1]): 2 nM
10 | COc1ccc(-c2cc(C(F)(F)F)n3ncc(C(=O)NCCCn4ccnc4C)c3n2)cc1 [SR0-31108] | – | – | EC50 (Cells exposed to TPrP [1]): > 50 nM
11 | NS(=O)(=O)c1ccc(Nc2nc(-c3cc4ccccc4oc3=O)cs2)cc1 [SR1-22833] | 57 | 245 | –
12 | CC1=C[C@@H]2c3cccc4[nH]cc(c34)C[C@H]2N(C)C1 [SR1-75354, agroclavine] | 1600 | 2000 | –
13 | CNC(=O)c1cc2c(cn1)[nH]c1ccccc12 [SR1-75632, N-methyl-9H-pyrido[3,4-b]indole-3-carboxamide] | 3200 | > 15000 | –
14 | Cc1ccc(-c2nnc3c4ccccc4c(C)nn23)cc1S(=O)(=O)NCCO [SR1-87813] | 156 | 733 | –
15 | COc1ccc(-c2nnc3c4ccccc4c(C)nn23)cc1S(=O)(=O)NC(C)(C)CO [SR1-87819] | 98 | 682 | –
16 | CNS(=O)(=O)c1cc(-c2nnc3c4ccccc4c(C)nn23)ccc1C [SR1-115255] | 196 | 1200 | –
17 | Cc1ccc(-c2nnc3c4ccccc4c(C)nn23)cc1S(=O)(=O)N1CCN(C)CC1 [SR1-115275] | 839 | 2600 | –
18 | c1ccc2c(c1)OCC(CNc1nnc(Cc3ccncc3)c3ccccc13)O2 (stereo not drawn) [SR1-134003] | 200 | 1200 | –
19 | COc1ccc(-c2csc(Nc3ccc(S(N)(=O)=O)cc3)n2)cc1 [SR1-223735] | 87 | 360 | –
20 | NS(=O)(=O)c1ccc(Nc2nc(-c3ccc4ccccc4c3)cs2)cc1 [SR1-281377] | 192 | 1200 | –
21 | CC(=O)Nc1cccc(-c2csc(Nc3ccc(S(N)(=O)=O)cc3)n2)c1 [SR1-364643] | 53 | 263 | –

Row | Compound | EC50 [2] [nM] | EC50 [3] [nM] | further results
22 | NS(=O)(=O)c1ccc(Nc2nc(-c3ccccn3)cs2)cc1 [SR1-477176] | 227 | 891 | –
23 | Cc1nc2sccn2c1-c1csc(Nc2ccc(S(N)(=O)=O)cc2)n1 [SR1-477230] | 47 | 204 | –
24 | Cc1nc2ncccn2c1-c1csc(Nc2ccc(S(N)(=O)=O)cc2)n1 [SR1-477264] | 155 | 597 | –
25 | NS(=O)(=O)c1ccc(Nc2nc(-c3ccccc3)cs2)cc1 [SR1-492469] | 311 | 859 | –
26 | Cc1ccc(-c2cc(C(F)(F)F)n3ncc(C(=O)NCCCn4ccnc4)c3n2)cc1 [SR1-527764] | 1.9 | 7.1 | –
27 | O=C(NCCCn1ccnc1)c1cnn2c(C(F)(F)F)cc(-c3ccc(-c4ccco4)cc3)nc12 [SR1-550907] | 2.9 | 9.7 | –
28 | Cc1ccc(-c2nnc3c4ccccc4c(C)nn23)cc1S(=O)(=O)N1CCN(CCO)CC1 [SR1-626887] | < 3 | 9.1 | –
29 | COc1ccc2cc3[n+](cc2c1OC)CCc1cc2c(cc1-3)OCO2 [SR1-711827, berberine chloride] | 3100 | 13200 | –
30 | O=c1cc(-c2ccc(O)cc2)oc2cc(O[C@@H]3O[C@H](CO)[C@@H](O)[C@H](O)[C@H]3OC3OC[C@](O)(CO)[C@H]3O)cc(O)c12 (stereo partly drawn) [SR1-712126] | 4600 | 10700 | –
31 | COc1ccc2c3c([nH]c2c1)C(C)=NCC3 [SR1-721899, harmaline] | 3800 | 14000 | –
32 | NS(=O)(=O)c1ccc(Nc2nc(-c3ccc(F)cc3)cs2)cc1 [SR1-742242] | 197 | 946 | –
33 | CN1C[C@H](CO)C=C2c3cccc4[nH]cc(c34)C[C@H]21 [SR1-758923, lysergol] | 1900 | > 15000 | –
34 | COc1cc2c(cc1O)C[C@H]1c3c(cc(O)c(OC)c3-2)CCN1C [SR1-758928, boldine] | 2000 | 7600 | –
35 | COc1cc(OC)c2c(=O)cc(-c3ccccc3)oc2c1 [SR1-758978, 5,7-dimethoxy-2-phenyl-4H-chromen-4-one] | 1700 | > 10000 | –
36 | NS(=O)(=O)c1ccc(Nc2nc(-c3cccnc3)cs2)cc1 [SR1-809850] | 88 | 337 | –
37 | COc1cc2c(cc1OC)-c1cc3ccc(OC)c(OC)c3c[n+]1CC2 [SR1-841226, palmatine chloride] | 1100 | 2000 | –
38 | COc1ccc2c(c1O)-c1c(OC)c(O)cc3c1[C@H](C2)N(C)CC3 [SR1-841246, N-Methyl lindcarpine] | 4400 | > 15000 | –
39 | COc1ccc(-c2cc(C(F)(F)F)n3ncc(C(=O)NCCCn4ccnc4C)c3n2)cc1 [SR3-5210] | – | – | EC50 (Cells exposed to TPrP [1]): 2.7 nM
40 | COc1ccc(-c2cc(C(F)(F)F)n3ncc(C(=O)NCCCn4ccnc4)c3n2)cc1 [SR3-5230] | – | – | EC50 (Cells exposed to TPrP [1]): > 32 nM
41 | COc1ccc2c(c1)[nH]c1c(C)nccc12 [SR5-1527, methoxy harman] | 1800 | 14000 | –
42 | O=c1cc(-c2ccc(O)cc2)oc2cc(O[C@@H]3O[C@H](CO)[C@H](O)[C@H](O)[C@H]3O)cc(O)c12 [SR5-2196, apigenin 7-(β-D-galactopyranosyl) ether] | 4600 | > 10000 | –

Row | Compound | EC50 [2] [nM] | EC50 [3] [nM] | further results
43 | COc1cc2c(cc1OC)[C@H]1[C@@H](C)c3ccc(OC)c(OC)c3CN1CC2 [SR5-2225, corydaline] | 1300 | 2000 | –
44 | COc1ccc(C2CC(=O)c3cc(OC)ccc3O2)cc1 (stereo not drawn) [SR5-2542, 6-methoxy-2-(4-methoxyphenyl) chroman-4-one] | 2100 | > 10000 | –
45 | COc1ccc(-c2cc(=O)c3c(O)cc(OC)cc3o2)cc1 [SR5-2549, 5-hydroxy-7-methoxy-2-(4-methoxyphenyl)-4H-chromen-4-one] | 2000 | 7300 | –
46 | COc1ccc(-c2cc(=O)c3c(O)cc(OC)c(OC)c3o2)c(OC)c1 [SR5-2616, 2-(2,4-dimethoxyphenyl)-5-hydroxy-7,8-dimethoxy-4H-chromen-4-one] | 1600 | 2100 | –
47 | COc1cc2cc3c4cc(OC)c(OC)cc4cc[n+]3c(C)c2cc1OC [SR5-2641, coralyne chloride] | 507 | 671 | –
48 | COc1ccc(-c2oc3cc(OC)c(OC)c(OC)c3c(=O)c2OC)cc1OC [SR5-2644, 2-(3,4-dimethoxyphenyl)-3,5,6,7-tetramethoxy-4H-chromen-4-one] | 620 | 1200 | –
49 | COc1ccc(-c2cc(=O)c3c(O)c(OC)c(O[C@H]4O[C@H](CO[C@@H]5O[C@@H](C)[C@H](O)[C@@H](O)[C@H]5O)[C@@H](O)[C@H](O)[C@H]4O)cc3o2)cc1 [SR5-2766, pectolinargenin 7-[6-O-(6-deoxy-α-L-mannopyranosyl)-β-D-glucopyranosyl] ether] | 2100 | 4000 | –
50 | COc1ccc(-c2nnc3c4ccccc4c(C)nn23)cc1S(=O)(=O)N1CCOCC1 [SR5-22837] | 29 | 89 | –
51 | COc1ccc(-c2nnc3c4ccccc4c(C)nn23)cc1S(=O)(=O)NCc1cccnc1 [SR5-22838] | 90 | 380 | –
52 | Cc1ccc(-c2nnc3c4ccccc4c(C)nn23)cc1S(=O)(=O)NCc1cccnc1 [SR5-22839] | 28 | 92 | –
53 | COCCNS(=O)(=O)c1cc(-c2nnc3c4ccccc4c(C)nn23)ccc1C [SR5-22841] | 130 | 688 | –
54 | CC1(c2cccc(Nc3nnc(Cc4ccncc4)c4ccccc34)c2)OCCO1 [SR-30012] | – | – | EC50 (Cells exposed to TPrP [4]): 2 nM
55 | C/C(=N\O)c1cccc(Nc2nnc(Cc3ccncc3)c3ccccc23)c1 [SR-30013] | – | – | EC50 (Cells exposed to TPrP [4]): 2 nM
56 | CO/N=C(\C)c1cccc(Nc2nnc(Cc3ccncc3)c3ccccc23)c1 [SR-30014] | – | – | EC50 (Cells exposed to TPrP [4]): 2 nM
57 | c1ccc2c(c1)CC(CNc1nnc(Cc3ccncc3)c3ccccc13)O2 (stereo not drawn) [SR-30024] | – | – | EC50 (Cells exposed to TPrP [4]): 8 nM
58 | COc1ccc(-c2cc(=O)c3c(OC)c(OC)c(OC)cc3o2)cc1OC [SR-05000002257, 2-(3,4-dimethoxyphenyl)-5,6,7-trimethoxy-4H-chromen-4-one] | 323 | 3600 | –
59 | COc1ccc(-c2cc(=O)c3c(OC)c(OC)c(OC)c(OC)c3o2)cc1 [SR-05000002625, 5,6,7,8-tetramethoxy-2-(4-methoxyphenyl)-4H-chromen-4-one] | 1900 | 6000 | –
60 | COc1ccc(-c2cc(=O)c3c(O)c(OC)c(OC)c(OC)c3o2)cc1OC [SR-05000002635, 2-(3,4-dimethoxyphenyl)-5-hydroxy-6,7,8-trimethoxy-4H-chromen-4-one] | 81 | 609 | –
61 | COc1cc2nccc(Oc3ccc(NC(=O)NC4CC4)c(Cl)c3)c2cc1C(N)=O [lenvatinib, reference compound] | – | – | neuroprotective activity in the TPrP assay [2]: entirely lacked neuroprotective activity
62 | CNC(=O)c1cc(Oc2ccc(NC(=O)Nc3ccc(Cl)c(C(F)(F)F)c3)cc2)ccn1 [sorafenib, reference compound] | – | – | neuroprotective activity in the TPrP assay [2]: entirely lacked neuroprotective activity
63 | COc1cc2nccc(Oc3ccc(NC(=O)Nc4cc(C)on4)c(Cl)c3)c2cc1OC [tivozanib, reference compound] | – | – | neuroprotective activity in the TPrP assay [2]: entirely lacked neuroprotective activity
